Common to all, as to type: cell-based
The target in one experiment is T1, RARα (Homo sapiens, UniProt P10276).
T1 construct: gal4 (fusion partner); expressed in transfected cells; host or cells: COS-7
T1 sequence (P10276 183-417 limits assumed): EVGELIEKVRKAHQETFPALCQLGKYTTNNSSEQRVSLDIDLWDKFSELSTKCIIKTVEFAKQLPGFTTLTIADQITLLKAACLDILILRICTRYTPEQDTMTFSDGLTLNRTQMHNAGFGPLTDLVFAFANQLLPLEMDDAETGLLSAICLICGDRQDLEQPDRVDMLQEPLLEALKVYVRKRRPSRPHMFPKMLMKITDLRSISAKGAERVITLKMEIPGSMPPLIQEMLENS
Description: Transactivation assay for RAR alpha (gal4-RAR fusion, luciferase reporter, COS-7 cells). To be noted: for RARα/RARβ ratio (*): fold-selectivity for RARα over RARβ; for RARα activity ratio: ratio of test compound EC50 to that of atRA on the same plate; for Improvement (RARα activity ratio) / Improvement (RARα/RARβ ratio): compared with XXX-03. On the procedure:
(§1) Transcriptional transactivation assays were performed with gal4 fusion receptor constructs, created using each of the RAR ligand binding domains, co-transfected with the pFR-luc (Stratagene™) reporter construct in COS-7 cells.
(§2) Briefly, on day 1, 96 well plates were seeded with 8000 cells per well then left to recover overnight. On day 2, the cells were co-transfected with 100 ng of reporter plasmid and 10 ng of the appropriate receptor plasmid per well using lipofectamine (Invitrogen™). On day 3, the lipofectamine containing media was replaced by a DMEM without phenol red, followed by the addition of test compound dissolved in 1 μL of DMSO to each well's 100 μL total volume. Finally, on day 4, the cells were lysed and their luciferase substrate was provided by the BrightGlo™ reagent (Promega™), the plates were then read on the MicroBeta TriLux™ (Perkin Elmer™).
(§3) Where replicate data has been generated, the data are quoted as a ratio of the mean EC50 from the separate experiments.
Background: Reporter assays use an easily measured gene product as a stand-in for the process of interest.

For a further experiment, the target named is T2, RARβ (Homo sapiens, UniProt P10826).
T2 construct: gal4 (fusion partner); expressed in transfected cells; host or cells: COS-7
T2 sequence (P10826 183-417 limits assumed): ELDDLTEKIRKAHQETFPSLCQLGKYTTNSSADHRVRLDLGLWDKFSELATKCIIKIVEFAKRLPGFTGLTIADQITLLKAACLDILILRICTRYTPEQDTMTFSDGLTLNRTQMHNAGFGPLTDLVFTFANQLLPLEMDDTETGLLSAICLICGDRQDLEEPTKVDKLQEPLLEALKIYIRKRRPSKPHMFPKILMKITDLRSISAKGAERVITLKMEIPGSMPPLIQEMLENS
Nature of the experiment: Transactivation assay for RAR beta (gal4-RAR fusion, luciferase reporter, COS-7 cells). The conditions noted are these: ratio of test compound EC50 to that of atRA; inactive = no agonist action at the highest concentration tested. On the procedure:
as §1, §2, §3

The next experiment concerns the target T3, RARγ (Homo sapiens, UniProt P13631).
T3 construct: gal4 (fusion partner); expressed in transfected cells; host or cells: COS-7
T3 sequence (P13631 185-419 limits assumed): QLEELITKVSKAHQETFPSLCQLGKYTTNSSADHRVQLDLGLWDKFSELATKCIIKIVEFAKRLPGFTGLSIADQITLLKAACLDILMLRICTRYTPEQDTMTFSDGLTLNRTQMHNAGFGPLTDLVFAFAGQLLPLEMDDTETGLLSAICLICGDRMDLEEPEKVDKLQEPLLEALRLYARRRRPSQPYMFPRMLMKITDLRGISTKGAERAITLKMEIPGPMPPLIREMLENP
Description: Transactivation assay for RAR gamma (gal4-RAR fusion, luciferase reporter, COS-7 cells). To be noted: ratio of test compound EC50 to that of atRA; inactive = no agonist action at the highest concentration tested. On the procedure: as §1, §2, §3

The record followed here is patent US9447028B2, “Therapeutic aryl-amido-aryl compounds and their use” (King's College London, priority 2009, dated 2016).

Consider `CCOc1c(Cl)cc(C(=O)Nc2ccc(C(=O)O)cc2)cc1C(F)(F)F` [AAA-025, 4-(3-Chloro-4-ethoxy-5-(trifluoromethyl)benzamido)benzoic acid], for which, at RARα (compared with XXX-01), the “increase in RARα activity” value amounted to 65 fold and the “increase in RARα versus RARβ selectivity” value was 3 fold. The RARβ activity ratio on RARβ is 131. The RARγ activity ratio result on RARγ is “inactive”.
Turning to `CCOc1c(Cl)cc(C(=O)Nc2ccc(C(=O)O)nc2)cc1Cl` [AAA-026, 5-(3,5-Dichloro-4-ethoxybenzamido)picolinic acid], on RARα, the “RARα/RARβ ratio (*)” value is given as 27.3 and the RARα activity ratio stood at 180. The RARβ activity ratio at RARβ is 4920. Moreover, the RARγ activity ratio result at RARγ is “inactive”.
Turning to `CCOc1cc(C(=O)Nc2ccc(C(=O)O)cc2)cc(OCC)c1OCC` [AAA-028, 4-(3,4,5-triethoxy-benzoylamino)-benzoic acid], at RARα, the “RARα/RARβ ratio (*)” value is given as 173.0 and the RARα activity ratio is recorded as 370. Further, the RARβ activity ratio at RARβ turned out to be 64000. Besides, the RARγ activity ratio entry on RARγ is “inactive”.
With `CCOc1c(Cl)cc(C(=O)Nc2ccc(C(=O)O)cc2)cc1Cl` [AAA-029, 4-(3,5-Dichloro-4-ethoxy-benzoylamino)-benzoic acid], on RARα, the “Improvement (RARα activity ratio)” value is reported as ~3.8-fold and the “Improvement (RARα/RARβ ratio)” value was ~11-fold. In addition, at RARβ, the RARβ activity ratio was 1920. The RARγ activity ratio entry on RARγ was “inactive”.
As to `COc1c(Cl)cc(C(=O)Nc2ccc(C(=O)O)cc2)cc1Cl` [AAA-030, 4-(3,5-Dichloro-4-methoxy-benzoylamino)-benzoic acid], on RARα, the “Improvement (RARα activity ratio)” value is ~3.1-fold and the “Improvement (RARα/RARβ ratio)” value was ~46-fold. For the same molecule, the RARβ activity ratio at RARβ amounted to 9525. The RARγ activity ratio on RARγ is listed as 5850.
Regarding `CCOc1c(Cl)cc(C(=O)Nc2ccc(C(=O)O)c(C(F)(F)F)c2)cc1Cl` [AAA-033, 4-(3,5-Dichloro-4-ethoxybenzamido)-2-(trifluoromethyl)benzoic acid], on RARα, the “RARα/RARβ ratio (*)” value amounted to 1.5 and the RARα activity ratio was determined as 13. Also, the RARβ activity ratio at RARβ is reported as 19. In addition, the RARγ activity ratio on RARγ is listed as 148.
As for `CC(C)Oc1c(Cl)cc(C(=O)Nc2ccc(C(=O)O)cc2)cc1C(F)(F)F` [AAA-034, 4-(3-Chloro-4-isopropoxy-5-(trifluoromethyl)benzamido)benzoic acid], on RARα, the “RARα/RARβ ratio (*)” value came to 122 and the RARα activity ratio was 2. Also, the RARβ activity ratio at RARβ is listed as 244. Further, on RARγ, the RARγ activity ratio is 1250.
For `COc1c(Cl)cc(C(=O)Nc2ccc(C(=O)O)cc2)cc1C(F)(F)F` [AAA-035, 4-(3-Chloro-4-methoxy-5-(trifluoromethyl)benzamido)benzoic acid], in that order: 8700, 0.30, 2620 and 87000.
For `O=C(O)c1ccc(NC(=O)c2cc(Cl)c(OC3CCC3)c(C(F)(F)F)c2)cc1` [AAA-036, 4-(3-Chloro-4-cyclobutoxy-5-(trifluoromethyl)benzamido)benzoic acid], in that order: 31, 7.0, 215 and 2438.
On to `CC(C)(C)Oc1c(Cl)cc(C(=O)Nc2ccc(C(=O)O)cc2)cc1C(F)(F)F` [AAA-037, 4-(4-(tert-Butoxy)-3-chloro-5-(trifluoromethyl)benzamido)benzoic acid], for which, at RARα, the “RARα/RARβ ratio (*)” value came to 1300 and the RARα activity ratio amounted to 0.25. The RARβ activity ratio at RARβ is listed as 324. Further, the RARγ activity ratio on RARγ is on record as more than 2600.
Regarding `Cc1cc(NC(=O)c2cc(Cl)c(OC(C)(C)C)c(C(F)(F)F)c2)ccc1C(=O)O` [AAA-038, 4-(4-(tert-Butoxy)-3-chloro-5-(trifluoromethyl)benzamido)-2-methylbenzoic acid], at RARα, the “RARα/RARβ ratio (*)” value stood at 98 and the RARα activity ratio came to 0.50. For the same molecule, the RARβ activity ratio on RARβ came out at 49. The RARγ activity ratio at RARγ turned out to be 0.36.
As to `CCOc1c(Cl)cc(C(=O)Nc2ccc(C(=O)O)c(C)c2)cc1C(F)(F)F` [AAA-039, 4-(3-Chloro-4-ethoxy-5-(trifluoromethyl)benzamido)-2-methylbenzoic acid], at RARα, the “RARα/RARβ ratio (*)” value turned out to be 59 and the RARα activity ratio was 3.0. Besides, the RARβ activity ratio at RARβ was found to be 177. In addition, the RARγ activity ratio at RARγ was 2985.
Regarding `Cc1cc(NC(=O)c2cc(Cl)c(OC(C)C)c(C(F)(F)F)c2)ccc1C(=O)O` [AAA-040, 4-(3-Chloro-4-isopropoxy-5-(trifluoromethyl)benzamido)-2-methylbenzoic acid], at RARα, the “RARα/RARβ ratio (*)” value stood at 55 and the RARα activity ratio is 1.1. In addition, the RARβ activity ratio on RARβ is 60. Further, at RARγ, the RARγ activity ratio stood at 194.
`COc1c(Cl)cc(C(=O)Nc2ccc(C(=O)O)c(C)c2)cc1C(F)(F)F` [AAA-041, 4-(3-Chloro-4-methoxy-5-(trifluoromethyl)benzamido)-2-methylbenzoic acid]: on RARα, the “RARα/RARβ ratio (*)” value worked out at 44 and the RARα activity ratio worked out at 5.4. Further, at RARβ, the RARβ activity ratio is given as 238. In addition, the RARγ activity ratio on RARγ stood at 31340.
For `CCOc1c(Br)cc(C(=O)Nc2ccc(C(=O)O)cc2)cc1C(F)(F)F` [AAA-042, 4-(3-Bromo-4-ethoxy-5-(trifluoromethyl)benzamido)benzoic acid], in that order: 68, 5.4, 369 and 6000.
On to `O=C(O)c1ccc(NC(=O)c2cc(Cl)c(OC3CCCC3)c(C(F)(F)F)c2)cc1` [AAA-043, 4-(3-Chloro-4-(cyclopentyloxy)-5-(trifluoromethyl)benzamido)benzoic acid], for which, on RARα, the “RARα/RARβ ratio (*)” value stood at 27 and the RARα activity ratio came out at 2. Further, the RARβ activity ratio at RARβ amounted to 53. In addition, the RARγ activity ratio at RARγ was 688.
Consider `O=C(O)c1ccc(NC(=O)c2cc(Cl)c(OC3CCCC3)c(OC3CCCC3)c2)cc1` [AAA-044, 4-(3-Chloro-4,5-bis(cyclopentyloxy)benzamido)benzoic acid], for which, on RARα, the “RARα/RARβ ratio (*)” value was 32 and the RARα activity ratio is on record as 1.7. Moreover, the RARβ activity ratio at RARβ is reported as 55. For the same molecule, the RARγ activity ratio on RARγ came to 571.
Turning to `O=C(O)c1ccc(NC(=O)c2cc(Cl)c(OCc3ccccc3)c(OCc3ccccc3)c2)cc1` [AAA-045, 4-(3,4-bis(benzyloxy)-5-chlorobenzamido)benzoic acid], on RARα, the “RARα/RARβ ratio (*)” value is on record as 39 and the RARα activity ratio was 7.3. Further, on RARβ, the RARβ activity ratio is on record as 283. At RARγ, the RARγ activity ratio was 3651.
For the molecule `Cc1cc(NC(=O)c2cc(Cl)c(OC3CCCC3)c(OC3CCCC3)c2)ccc1C(=O)O` [AAA-046, 4-(3-Chloro-4,5-bis(cyclopentyloxy)benzamido)-2-methylbenzoic acid], on RARα, the “RARα/RARβ ratio (*)” value was 43 and the RARα activity ratio amounted to 2.8. Also, on RARβ, the RARβ activity ratio amounted to 121. At RARγ, the RARγ activity ratio was 698.
Consider `O=C(O)c1ccc(NC(=O)c2cc(Cl)c(OC3CCCCC3)c(OC3CCCCC3)c2)cc1` [AAA-047, 4-(3-Chloro-4,5-bis(cyclohexyloxy)benzamido)benzoic acid], for which, on RARα, the “RARα/RARβ ratio (*)” value worked out at 2 and the RARα activity ratio is recorded as 11. The RARβ activity ratio on RARβ was found to be 22. Further, the RARγ activity ratio on RARγ is on record as 270.
For `CC(C)(C)Oc1cc(C(=O)Nc2ccc(C(=O)O)cc2)cc(Cl)c1OC(C)(C)C` [AAA-048, 4-(3,4-Di-tert-butoxy-5-chlorobenzamido)benzoic acid], at RARα, the “RARα/RARβ ratio (*)” value turned out to be 44 and the RARα activity ratio is on record as 0.86. The RARβ activity ratio at RARβ stood at 38. The RARγ activity ratio on RARγ is 162.
